Assay results taken from paper PMC3514216, “SRC Homology 2 Domain Binding Sites in Insulin, IGF-1 and FGF receptor mediated signaling networks reveal an extensive potential interactome” (Cell Communication and Signaling : CCS, 2012).

What was measured:
Ptpn11_N SH2 domain = molecular target: T1, Ptpn11_N SH2 domain (Homo sapiens, UniProt Q06124); assay: SPOT peptide array; assay type: binding; conditions: GST-SH2 0.25 μM; for Array positive: membrane-bound peptide, 1 mM DTT, LiCor read-out; for Peptide array intensity (X mean): spot intensity as factor of array mean
T1 sequence (Q06124 6-102 limits assumed): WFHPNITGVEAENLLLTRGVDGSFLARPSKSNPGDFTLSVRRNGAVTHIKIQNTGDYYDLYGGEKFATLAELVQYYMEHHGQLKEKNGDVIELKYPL
Text: (§1) The use of addressable peptide arrays is a reproducible and semi-quantitative approach that has been extensively validated for studying protein interactions with peptide ligands. To investigate connections between SH2 domain proteins and their putative phosphorylated docking sites on cell surface receptors, we developed addressable arrays consisting of 192 phosphotyrosine peptides. This peptide set was assembled using 71 phosphotyrosine peptide motifs corresponding to all of the cytoplasmic tyrosine residues within the FGF receptors (FGFR1-4), insulin receptor (InsR) and IGF-1 receptor (IGF-1R) (Figure 1A). Activation of these receptors results in the phosphorylation of associated scaffold proteins, and so 75 phosphotyrosine peptides corresponding to a comprehensive list of tyrosine residues within insulin receptor substrates (IRS-1 and IRS-2) and fibroblast receptor substrates (FRS-2 and FRS-3) were included. In addition, 33 phosphotyrosine peptides were incorporated from the downstream signaling proteins PLC-γ1, p130Cas (BCAR1) and p62DOK1. […] These control peptides provide a reference and establish the empirical cut-off for designated binding interactions (Table 1). No discrimination was made against peptides on the basis of reported phosphorylation state in order to examine a diverse and unbiased set of motifs. The resulting set of 192 phosphotyrosine peptides and their corresponding position in the proteins of origin is noted in Additional file 1: Table S1. Addressable arrays were synthesized as membrane-bound 11-mer peptides using the SPOT synthesis technique. While the majority of SH2 domains recognize residues C-terminal to the phosphotyrosine in their cognate peptide ligands, additional contacts between SH2 domains and residues N-terminal to the phosphotyrosine are observed for the SH2 domain of Sh2d1a (SAP) and cannot be ruled out in other cases. Peptides were synthesized with six flanking residues C-terminal to the phosphotyrosine and four residues N-terminal to the phosphotyrosine.
SH2 domains were arrayed as GST fusion proteins and detected using anti-GST primary antibodies and near-infrared labeled secondary antibodies. In an effort to present a dataset with minimal false positives, we chose an empirical cutoff based on the array average across all peptide spots to classify interactions (Figure 1A). In cases where the intensity of the signal for an individual SH2-domain binding event exceeded the mean intensity of all the peptides on the membrane by three-fold were scored as “array positives” [22]. Non-binding was judged in cases where the intensity of a spot was less than the mean intensity of all spots on the membrane and these were scored as “array negatives”. Peptides with signal intensities between 1X and 3X mean were scored as “indeterminate” and ascribed as neither array positive binding interactions nor array-negative non-binders. […] This signature may be indicative of promiscuity differences between phosphopeptides or there may be a subset of peptides which interact in a nonspecific fashion with either the GST fusion tag or one of the antibodies used for detection, resulting in false positives. Consistent with our goal of reducing the errors associated with identifying false-positives, we probed three separate arrays with three separate preps of the GST fusion tag alone. Potentially non-specificly interacting peptides (so-called ‘sticky’ peptides) were identified as any that bound to GST with above mean intensity in two out of three separate trials. This approach identifies any peptides which interact with GST or either of the recognition antibodies, a known confounding factor for downstream analysis. This conservative approach allows us to score many significant peptides as ‘binders’ which may have been indeterminate before when incorporating the ‘sticky’ peptides into the array average. […]

panel of 50 SH2 domains = assay: SPOT peptide array probed with each of 50 GST-SH2 domains; assay type: binding; conditions: SPOT192 peptide array; for SH2 Domains >3X: list of GST-SH2 domains with spot intensity >3X array mean (array-positive); for 2X < SH2 Domains < 3X: list of GST-SH2 domains with spot intensity between 2X and 3X array mean (indeterminate range)
Text: as §1
To assess the potential network of SH2 domain interactions we selected 50 SH2 domains representing 28 of the 38 families of SH2 domains (Figure 1B) all of which we have previously shown can be expressed and purified. These include a number of extensively studied SH2 domains (Src, Grb2, PLCγ), as well as a number of less studied SH2 domains from proteins such as Shd, She, Shf, Slnk (Sh2d6), Sh2d1a (SAP), Sh2d1b (Eat-2), and Brdg1. To address potential variability in specificity within families we employed all members from the SHB, CRK, GRB2, SRC and ABL families (families are indicated with complete Capitalized lettering).
SH2 domains were arrayed as GST fusion proteins and detected using anti-GST primary antibodies and near-infrared labeled secondary antibodies. In an effort to present a dataset with minimal false positives, we chose an empirical cutoff based on the array average across all peptide spots to classify interactions (Figure 1A). In cases where the intensity of the signal for an individual SH2-domain binding event exceeded the mean intensity of all the peptides on the membrane by three-fold were scored as “array positives” [22]. Non-binding was judged in cases where the intensity of a spot was less than the mean intensity of all spots on the membrane and these were scored as “array negatives”. Peptides with signal intensities between 1X and 3X mean were scored as “indeterminate” and ascribed as neither array positive binding interactions nor array-negative non-binders. […] This signature may be indicative of promiscuity differences between phosphopeptides or there may be a subset of peptides which interact in a nonspecific fashion with either the GST fusion tag or one of the antibodies used for detection, resulting in false positives. […]

Substance	Array positive (Ptpn11_N SH2 domain)	Peptide array intensity (X mean) (Ptpn11_N SH2 domain) [X Mean]	SH2 Domains >3X (panel of 50 SH2 domains)	2X < SH2 Domains < 3X (panel of 50 SH2 domains)
ELSNpYICMGGK [11-mer phosphotyrosine peptide, IRS-1 (Y465)]	No (Peptide spots with average intensity values between 1X-3X the array mean were defined as ‘indeterminate’. Those with intensities below 1X mean were defined as array negative)	0.9	–	–
APVSpYADMRTG [11-mer phosphotyrosine peptide, IRS-1 (Y1012)]	No (Peptide spots with average intensity values between 1X-3X the array mean were defined as ‘indeterminate’. Those with intensities below 1X mean were defined as array negative)	0.59	–	–
MDGGpYLDQPDN [B04]	–	–	FGR, FYN, LYN, SH2D1B, SHC1, SHIP1, SRC, YES	BLK, HCK, LCK
VLSYpYSLPRSF [C13]	–	–	CRK, CRKL, Sh2b, SH2D2A, SHF, SYK_C	BRDG1, PLCG2_C, PTPN11_C, SHB
NPGNpYTARIQA [B08]	–	–	BRDG1, MIST, PLCG2_N, PTPN11_C, SHF, SHD, SYK_C	DAPP1, Sh2b, SH3BP2, SHB, SHE
PCSVpYVPDEWE [A20]	–	–	BMX, DAPP1, ITK, PLCG2_N, PLCG2_C, RASA1_N, RASA1_C, SH2D1B, VAV1	FGR, FYN, MATK, SH2D2A, SHC1
RTELpYAVIDIE [G10]	–	–	ABL2, BMX, ITK, MIST, PLCG2_C, RASA1_N, Sh2b, SH2D1B, SHB, SHF, SHE, SYK_C	ABL1, BRK, RASA1_C, SHD, YES
LVALpYTRDEHF [B21]	–	–	–	SH2D2A
AKTGpYENFIHL [B10]	–	–	GADS, GRB2, GRB7, MIST, PI3K1_N, SH2D2A, SH3BP2, TENC1	BRDG1, BRK
PKCTpYENVTGG [G13]	–	–	GADS, GRB2, GRB7, SH3BP2	GRAP, MIST
QGYVpYEAAQPE [H09]	–	–	VAV1	ZAP70_N
VIMLpYVFHRKR [B11]	–	–	BCAR3, BMX, BRDG1, BRK, DAPP1, FER, MATK, MIST, PI3K1_N, PLCG2_N, PTPN11_N, PTPN11_C, RASA1_C, RIN1, SHB, SHF, SHD, SHE, TENC1	GRB2, PI3K1_C, PLCG2_C, SH3BP2, SYK_C
SIEEpYTEMMPA [11-mer phosphotyrosine peptide, IRS-1 (Y551)]	No (Peptide spots with average intensity values between 1X-3X the array mean were defined as ‘indeterminate’. Those with intensities below 1X mean were defined as array negative)	0.56	–	–
SDAYpYGPEDPH [C11]	–	–	–	BLK, BMX, DAPP1, FYN, GRB7, LCK, LYN, PLCG2_C, RASA1_C, SH2D1B, SHC1
RGMEYpLASKKA [E12]	–	–	BCAR3, BRDG1, TENC1, ZAP70_N	BMX, FER, MIST, PLCG2_N, SHB, SHF
PGLDpYSFDTCK [F09]	–	–	ABL1, CRK, CRKL, HCK, GRB7, SHIP1, SRC, ZAP70_N	FGR, SHC1
DNLPpYVQILKT [E03]	–	–	BRDG1, MIST, PI3K1_N, PTPN11_C, Sh2b, TENC1	BCAR3, FER, GRAP, MATK, PI3K1_C, PTPN11_N, RIN1, SHD
CLRRpYGYDSNL [F22]	–	–	BCAR3, BMX, BRDG1, CRK, CRKL, DAPP1, FER, GRB7, MATK, MIST, PLCG2_N, SHB, SHF, SHD, TENC1	ITK, PLCG2_C, PTPN11_C, RIN1, SH2D2A, SH3BP2
STDEpYLDLSAP [F11]	–	–	LCK	–
SLPQpYPHINGS [F06]	–	–	ZAP70_N	–
RSDDpYMPMSPA [D19]	–	–	–	PI3K1_C
KKPLpYWDLYEH [H17]	–	–	ABL1, BCAR3, BMX, CRKL, DAPP1, GRB7, ITK, MATK, PLCG2_N, PLCG2_C, RASA1_N, RASA1_C, SH2D2A, SH3BP2, TENC1	PI3K1_C, Sh2b
MCKVpYSDPQPH [E02]	–	–	CRKL	–
ADNDpYIIPLPD [A07]	–	–	BRK, DAPP1, PLCG2_N, PLCG2_C, SRC, VAV1	HCK, LCK, LYN, PI3K1_N, RIN1, SH2D1B, YES

Substance	Array positive (Ptpn11_N SH2 domain)	Peptide array intensity (X mean) (Ptpn11_N SH2 domain) [X Mean]	SH2 Domains >3X (panel of 50 SH2 domains)	2X < SH2 Domains < 3X (panel of 50 SH2 domains)
EGPLpYVIVEAA [F13]	–	–	ITK, MATK, PLCG2_N, RASA1_N, SYK_C	ABL2, PLCG2_C, PTPN11_N, SH2D1B
YPEDpYGDIEIG [D17]	–	–	BMX, BRK, FGR, SLNK, SRC	BLK, FER, FYN, HCK, GRB7, ITK, LCK, LYN, RASA1_N, SH2D1B, SHC1, YES
RQLNpYIQVELK [G14]	–	–	BCAR3, MIST, PTPN11_N, SHE	BRDG1, SHD, TENC1
AEDSpYGLVAPA [D06]	–	–	FGR, FYN, HCK, LCK, LYN, SH2D1B, SHC1, SHIP1, SRC, YES	BLK
LGPLpYASSNPE [A18]	–	–	ZAP70_N	–
SVIVpYKMKSGT [E04]	–	–	BCAR3, BMX, BRDG1, TENC1	BRK, FER, MIST, PTPN11_C, SHF, SHD, SYK_C
PLSDpYMNLDFS [D24]	–	–	GADS, GRAP, GRB2, RASA1_N, SYK_C	ABL1, GRB7, PI3K1_C, PLCG2_N, RASA1_C
QEGWpYRALTDL [D05]	–	–	CRK	ABL1, ABL2, TENC1
EYRKpYGGAKLN [B07]	–	–	BCAR3, BMX, BRDG1, BRK, FER, PLCG2_N, TENC1	ITK, MIST, PTPN11_C, RIN1, SHF, SHD, SYK_C
KEEGpYELPYNP [H21]	–	–	ABL1, ABL2, BLK, BRK, FGR, FYN, HCK, ITK, LCK, LYN, NCK1, PI3K1_N, RASA1_N, RASA1_C, RIN1, SH2D1B, SHC1, SHIP1, SRC, VAV1, YES	FER, GRB7
QVHTpYVNTTGV [G02]	–	–	GADS, GRAP, GRB2, GRB7, PI3K1_N, PI3K1_C	ABL1, ZAP70_N
MEYSpYDINRVP [E22]	–	–	ABL1	–
NLREpYLRARRP [E20]	–	–	BCAR3, BMX, BRDG1, MIST, PLCG2_N, RIN1, SHF, SHD, TENC1	BRK, DAPP1, FER, PI3K1_N, PLCG2_C, PTPN11_C, Sh2b, SHB
YVTDpYLDVPSN [A16]	–	–	SLNK	BRK, RASA1_N
RLEYpYENEKKW [B20]	–	–	ABL1, ABL2, BMX, BRK, FER, FGR, HCK, GADS, GRAP, GRB2, GRB7, MATK, MIST, PI3K1_N, PI3K1_C, RIN1, SH2D1B, SH2D2A, SH3BP2, SHF, TENC1, VAV1	BCAR3, BRDG1, CRK, ITK, PLCG2_N, PTPN11_N, PTPN11_C, Sh2b, SHC1, SHD, SRC
SIEEpYTEMMPA [C03]	–	–	BRK, SHC1	BLK, FER, FGR, LCK, PI3K1_C
SNPEpYLSASDV [A19]	–	–	VAV1	–
TEPTpYFYVTDY [A14]	–	–	BRK, ITK, RASA1_N	MATK, PLCG2_N, SH2D1B, SYK_C
RRYGpYDSNLFS [F23]	–	–	ABL1, BCAR3, BMX, BRDG1, CRK, CRKL, FER, MATK, SHB, SHD, TENC1	PLCG2_N, PTPN11_C, SH2D2A, SHF
AEPDpYGALYEG [H01]	–	–	FGR, FYN, HCK, LYN, SH2D1B, SHC1, SHIP1, SLNK, SRC, YES, ZAP70_N	BLK, BMX, LCK
YGALpYEGRNPG [H02]	–	–	–	SH3BP2, ZAP70_N
GGSPpYPGIPVE [F01]	–	–	ZAP70_N	–
ELSNpYICMGGK [C01]	–	–	PI3K1_C	–
DDPSpYVNVQNL [A06]	–	–	GADS, GRAP, GRB2, SH2D1B	–
